Values after ≈ are worked out from the molar mass of the structure shown. “Also recorded” adds a separate entry of the source. Where two headings read alike, the source gives them in different places.
Assays:
[1] = Cytotoxicity on growing MRC-5 cells (MTS); type: cell-based, human; conditions: human, mrc-5 cells
Protocol: (§1) Cell Culture. Vero (African Green Monkey kidney cells) and MRC-5 (diploid Human Embryonic Lung fibroblasts) cells were obtained from the American Type Culture Collection (ATCC) and were grown in minimal essential medium (MEM) with Earl's salts and glutamine (GIBCO BRL, Life Technologies, Inc.) with 10% heat inactivated fetal bovine serum (GIBCO BRL) and penicillin (100 μg/mL)/streptomycin (100 μg/mL).
(§2) Cytotoxicity Analysis. The cytotoxicity of the compound was assayed using few the CellTiter 96™ Aqueous Non-Radioactive Cell Proliferation (MTS) Assay (Promega). Briefly, viable cell number was determined by trypan blue staining and cells (MRC-5 and Vero) were resuspended in minimal essential medium (MEM) supplemented with 10% FBS (GIBCO). Eighty microliters of cell suspension (1.7×10^4 cells/well) was dispensed onto a 96-well microtiter plates. At this time 20 μL of drug (or control) was added to appropriate wells. Each concentration was assayed in quadruplicate. The plates were incubated at 37° C. in a humidified 5% CO2 atmosphere for 4 days and MTS assay was performed according to the manufacturer's instructions. The average absorbence of the sample was graphed for each concentration and the data obtained was used to calculate TC50 (the concentration necessary to give one-half maximum growth) for each compound.

[2] = Cytotoxicity on growing Vero cells (MTS); type: cell-based; conditions: african green monkey, Table 4, 50% inhibition of logphase growing cells, read-out: TC50 Growing Vero
Protocol: as §1, §2

[3] = Cytotoxicity on static MRC-5 cells; type: cell-based; conditions: human, Table 4, 50% cell death (static cells), read-out: TC50 Static MRC-5
Protocol: as §1, §2

[4] = Cytotoxicity on static Vero cells; type: cell-based; conditions: african green monkey, Table 4, 50% cell death (static cells), read-out: TC50 Static Vero
Protocol: as §1, §2

TNFα = assay: Inhibition of TNFα production in LPS-stimulated THP-1 cells (ELISA); type: cell-based, human; conditions: for inhibition at 10 µg/mL / inhibition at 100 µg/mL / IC50: Homo sapiens; for inhibition at 10 µg/mL: 10 μg/mL; for inhibition at 10 µg/mL / inhibition at 100 µg/mL: THP-1, 6 h post-stimulation (FIG. 2), read-out: percent inhibition of TNFα production; for inhibition at 100 µg/mL: 100 μg/mL; for IC50: Table 2, LPS-stimulated THP-1, 6 h post-stimulation
Protocol: (§3) Cell line. THP-1 cells (human monocyte) were maintained in RPMI 1640 medium containing 25 mM Hepes buffer, 2 mM L-glutamine, 50 units of penicillin per mL, 50 μg of streptomycin sulfate per mL, and 10% heat-inactivated fetal bovine serum (FBS) in a humidified incubator containing 5% CO2. The cells were split 1:4 weekly as recommended by the American Type Culture Collection (ATCC).
(§4) TNFα assay. Varying concentrations of the test compound or control compound were added to THP-1 cells plated at a density of 1×10^6cells/mL in 600 μL of 10% RPMI in a 48 well plate. After one hour the cells were stimulated with 0.5 μg of lipopolysaccharide (LPS; Sigma, lot number 43H40491) per mL. Six hours post-stimulation supernatants were collected and assayed for TNFα or IL-1β production using a commercially available cytokine detection ELISA (Enzyme Linked Immunosorbent Assay) kit according to the suppliers instructions. A suitable assay kit may be obtained from Biosource, or R and D systems. A novel xanthine analog, HWA-3138, having the structure (as shown below) was used as the control compound (30) in this study to monitor the response of the THP-l cells. Xanthine analogs are known inhibitors of TNFα but not IL-1β. In the following experiments compound HWA-3138 was used as a positive control. [drawing 58]
Time of Addition. Varying concentrations of test or control compounds were added to THP-1 cells (1×10^6 cells/mL) at different time points post-stimulation using 0.5 μg of LPS (Sigma, lot number 43H40491) per mL in 300 μL of 10% RPMI in a 48 well plate. Six hours post-stimulationsupernatants were collected and assayed for TNFα or IL-1β production using a Biosource cytokine detection ELISA (Enzyme Linked Immunosorbent Assay) kit according to the supplier's instructions.
The membrane bound TNFα was separated from the free TNFα in the culture medium at 6 hours post-LPS stimulation as follows: The corresponding cells were centrifuged at 3500 rpm (~1,000×g) for 6 min. The supernatants were removed and the cell pellets were then resuspended in 200 μL of 0.25 mM Tris-HCl (pH 7.4). The cell associated TNFα was prepared by freezing the cell suspension in dry ice/ethanol and thawing at 37° C. three times with Vortexing in-between freeze-thaw cycles. Each cycle was 4-5 min apart.
To determine the long-term effects of phosphazole compound T70241 on TNFα production after a single treatment, THP-1 cells were pre-incubated with T70241, washed and resuspended in drug free medium. The xanthine analog HWA-3138 was used as a control.

IL-1β = assay: Inhibition of IL-1β production in LPS-stimulated THP-1 cells (ELISA); type: cell-based, human; conditions: for IC50: Homo sapiens
Protocol: as §3
as §4, with “58] […]” for “58]”
THP-1 cells were cultured and IL-1β inhibition assays were conducted as described for TNFα in Example 46, except a commercially available IL-1β assay kit, obtained from R and D Systems, Minneapolis, Minn., was used instead of the TNFα kit.
With reference now to FIG. 8, for each concentration of T70241 tested, the membrane bound IL-1β was separated from the IL-1β found free in the culture medium at 6 hours post-LPS stimulation as described in Example 46 for TNFα, and the percent inhibition of each fraction was graphed.

HSV-2 = HSV-2 CPE assay in Vero cells; type: cell-based; conditions: Human alphaherpesvirus 2, Vero; Table 4
HSV-1 = HSV-1 CPE assay in Vero cells; type: cell-based; conditions: Human alphaherpesvirus 1, Vero; Table 4
[5] = Table 2, LPS-stimulated THP-1, 6 h post-stimulation, read-out: IC50 IL-1β in THP-1 cells
[6] = lowest concentration tested, 6 h post-LPS (FIG. 4)

SMILES | CC50 at 96 h [2] [µg/mL] | CC50 at 96 h [3] [µg/mL] | CC50 at 96 h [4] [µg/mL] | inhibition at 10 µg/mL (TNFα) [%] | inhibition at 100 µg/mL (TNFα) [%] | IC50 (TNFα) [µg/mL] | IC50 (IL-1β; [5]) [µg/mL] | IC50 (HSV-2) [µg/mL] | IC50 (HSV-1) [µg/mL] | further results
CCCCCn1cpc2ncnc(N)c21 (stereo not drawn) [T70254, 7-Amino-1-(n-pentyl)-1,3-azaphospholo[4,5-d]pyrimidine] | 8.18 (≈ 36.8 µM) | 9.25 (≈ 41.6 µM) | 18.2 (≈ 81.8 µM) | ~30 | ~55 | 19.4 (≈ 87.3 µM) | 152 (≈ 686 µM) | > 50 | > 50 | CC50 at 96 h ([1]; Table 4, 50% inhibition of logphase growing cells, read-out: TC50 Growing MRC-5): 17.9 µg/mL (≈ 80.8 µM); inhibition of TNFα production by T70254 (TNFα; 6 hours, LPS (FIG. 2)): significantly inhibits TNFα production in THP-1 cells
Nc1ncnc2pc[nH]c12 (stereo not drawn) [T70241, 7-amino-1H-1,3-azaphospholo[4,5-d]pyrimidine] | > 50 | > 50 | > 50 | ~25 | ~90 | 23.9 (≈ 157 µM) | 16.1 (≈ 106 µM) | > 50 | > 50 | CC50 at 96 h ([1]; FIG. 9A, four day period, read-out: TC50, growing MRC-5 cells): > 50 µg/mL; levels of cell associated and free TNFα (TNFα; 6 hours post-LPS (FIG. 4)): able to reduce the levels of both cell associated and free TNFα; TNFα level on late addition (TNFα; compound added 5 hours post-LPS, read at 6 h (FIG. 3)): significantly reduce the level of TNFα in the culture medium; also recorded: sharply inhibit the amount of cytokine in the culture; inhibition of TNFα production compared to control HWA-3138 (TNFα; concentrations as little as 10 μg/mL (FIG. 2)): inhibits TNFα production in these cells better than the control xanthine compound; reduction of extracellular TNFα (TNFα; [6]): about 50%; reduction of membrane-bound (intracellular) TNFα (TNFα; [6]): ~30%; long-term inhibition of TNFα production after a single treatment (TNFα; pre-incubated, washed, drug free medium (FIG. 5)): in a dose dependent fashion for 72 hours after the drug removal; inhibition of IL-1β production (IL-1β; 50 to 100 μg/mL, THP-1 (FIG. 6)): able to inhibit IL-1β production; cell-associated and free IL-1β (IL-1β; 6 hours post-LPS (FIG. 8)): reduce both the cell-associated (intracelluar) and the free (extracellular) IL-1β; IC50 (IL-1β; from FIG. 6, LPS-stimulated THP-1, read-out: IC50, IL-1β production): 38.8 µg/mL (≈ 255 µM)
